Values of other authors, collected in article PMC2918392 (Journal of medicinal chemistry, 2010).

How the values were obtained:
µ-opioid receptor [1] = tested on: µ-opioid receptor
[2] = tested on: µ opioid receptors (guinea pig ileum); settings: read-out: Functional Bioactivity GPI (IC50), ± S.E.M.
µ-opioid receptor [3] = settings: see also ref 1

In the case of Tyr-Pro-Phe-(2S,3S)-β-MePhe-NH2, the “activity among EM analogues containing β-MePhe stereoisomers, in words” value (µ-opioid receptor [1]) is given as “highest activity”.
In the case of Tyr-Pro-Phe-Phe-NH2 [EM-2], the IC50 [2] is given as 15 ± 2 nM, the “µ-opioid receptor selectivity, in words” value (µ-opioid receptor [3]) is given as “c Data from reference 16. Binding affinity based on competition against [^3H]naloxone in rat brain membranes. Data were not presented on the affinity of EM2 at the δ-opioid receptor in that preparation, as EM was shown to be highly selective for µ-opioid receptors (see also reference 1)” and the “affinity and selectivity of activation of µ-opioid receptors, in words” value (µ-opioid receptor [1]) is given as “high affinity and selectivity”.
For Tyr-Pro-Phe-Phe-OH, the “µ-opioid receptor agonist activity, in words” value (µ-opioid receptor [1]; C-terminal free acid) is given as “completely devoid of µ-opioid receptor agonist activity”.
In the case of Tyr-Pro-Trp-Phe-NH2 [EM-1], the “affinity and selectivity of activation of µ-opioid receptors, in words” value (µ-opioid receptor [1]) is listed as “high affinity and selectivity”.
